Like-named read-outs stand apart in the source and are kept apart here.
Assays:
[1] = Skin contact irritation testing
Source text: In contrast, some of the compounds disclosed herein, generally as prodrugs of treprostinil, are not irritating to the skin. Accordingly, the present compounds are well suited for topical or transdermal administration.

[2] = Bioavailability and pharmacokinetics of treprostinil in rats after intravenous, intraportal vein, intraduodenal, intracolonic and oral dosing (Example 1); conditions: rats dosed via the portal vein, 1 mg/kg, before the thirty-minute sample
[3] = test system: Caco-2 cell monolayers; assay: Permeability across Caco-2 cell monolayers; format: in vitro ADME
Source text: (§1) There are two major barriers to deliver treprostinil in the circulatory system. One of these barriers is that treprostinil undergoes a large first pass effect. […] The permeability of treprostinil has been measured across Caco-2 cell monolayers. […] It is believed that the p-glycoprotein efflux pump prevents certain pharmaceutical compounds from traversing the mucosal cells of the small intestine and, therefore, from being absorbed into systemic circulation.

[4] = in vivo; conditions: male, Sprague-Dawley, rat
[5] = First pass effect on circulating through the liver; format: in vivo
Source text: as §1

[6] = rat, in vivo
[7] = 1 mg/kg, Average (n = 3) plasma concentrations
[8] = 1 mg/kg, Average plasma concentrations
[9] = iv, 1 mg/kg, Average (n = 3) plasma concentrations
[10] = po, 1 mg/kg, Average (n = 3) plasma concentrations
[11] = male, Sprague-Dawley, iv, 1 mg/kg

CCCCC[C@H](O)CC[C@@H]1[C@H]2Cc3cccc(OCC(=O)O)c3C[C@H]2C[C@H]1O [Treprostinil, treprostinil]
skin irritation upon skin contact [1]: can be irritating upon skin contact | Mortality [2]: One rat (#123) expired | apical to basal transport rate [3]: 1.39e-06 cm/s | basal to apical transport rate [3]: 1.23e-05 cm/s | concentration at 360 min [4, 7]: 0.89 ng/mL | concentration at 480 min [4, 7]: 0.9 ng/mL | concentration at 2 min [4, 8]: 302 ng/mL | concentration at 5 min [4, 8]: 97.4 ng/mL | concentration at 15 min [4, 8]: 48 ng/mL | concentration at 30 min [4, 8]: 21.9 ng/mL | concentration at 60 min [4, 8]: 11.1 ng/mL | concentration at 120 min [4, 8]: 3.87 ng/mL | concentration at 240 min [4, 8]: 2.51 ng/mL | concentration at 360 min [4, 8]: 4.95 ng/mL | concentration at 480 min [4, 8]: 5.14 ng/mL | Tmax [4]: ≤ 5 min | Vd ([4]; iv, 1 mg/kg): 1.98 L/kg | clearance ([4]; iv, 1 mg/kg): 88.5 mL/min/kg | concentration at 2 min [4, 9]: 1050 ng/mL | concentration at 5 min [4, 9]: 364 ng/mL | concentration at 15 min [4, 9]: 131 ng/mL | concentration at 30 min [4, 9]: 55.6 ng/mL | concentration at 60 min [4, 9]: 14.4 ng/mL | concentration at 120 min [4, 9]: 4.45 ng/mL | concentration at 240 min [4, 9]: 1.09 ng/mL | concentration at 360 min [4, 9]: 0.5 ng/mL | concentration at 480 min [4, 9]: 0.3 ng/mL | AUC(0-t) ([4]; iv, 1 mg/kg, Average AUC480 min): 188 ng·h/mL | Cmax ([4]; iv, 1 mg/kg): 2120 ng/mL | AUC(0-t) ([4]; iv, 1 mg/kg, Individual AUC480 min): 172 ng·h/mL | Tmax ([4]; iv, 1 mg/kg): 0 min | half-life ([4]; iv, 1 mg/kg, T½ (terminal plasma half-life)): 94 min | half-life ([4]; iv, 1 mg/kg, half-life of the distribution phase): 10.3 min | concentration at 5 min [4, 10]: 4.52 ng/mL | concentration at 15 min [4, 10]: 2.9 ng/mL | concentration at 30 min [4, 10]: 3.67 ng/mL | concentration at 60 min [4, 10]: 2.06 ng/mL | concentration at 120 min [4, 10]: 4.52 ng/mL | concentration at 240 min [4, 10]: 1.82 ng/mL | concentration at 360 min [4, 10]: 0.9 ng/mL | concentration at 480 min [4, 10]: 0.96 ng/mL | AUC(0-t) ([4]; po, 1 mg/kg, Average AUC480 min): 17.3 ng·h/mL | bioavailability ([4]; po, 1 mg/kg, Average Bioavailability (%) ± SD): 9.2 ± 1.4% | Cmax ([4]; po, 1 mg/kg): 5 ng/mL | AUC(0-t) ([4]; po, 1 mg/kg, Individual AUC480 min): 16.6 ng·h/mL | bioavailability ([4]; po, 1 mg/kg, Individual Bioavailability): 8.9% | Tmax ([4]; po, 1 mg/kg): 5 min | absorbed dose left after first pass [5]: about 40% | treprostinil plasma levels metabolized upon first circulating through the liver [5]: about 60% | compound absorbed in the intestine ([6]; male, Sprague-Dawley): approximately 60% | Tmax ([6]; male, Sprague-Dawley, 1 mg/kg): 2 min | Average (n = 3) plasma concentrations ([6]; male, Sprague-Dawley, 1 mg/kg, 360 min): 0.06^λ ng/mL | Average (n = 3) plasma concentrations ([6]; male, Sprague-Dawley, 1 mg/kg, 480 min): 0.20^λ ng/mL | CLs [6, 11]: 88.54 mL/min/kg | Volume of Distribution [6, 11]: 1.98 L/kg | distribution and elimination of the compound that occurs by 60 minutes post-dosing ([6]; male, Sprague-Dawley, iv, 60 min): over 90% | Clinical observations ([6]; iv, 1 mg/kg): extreme lethargy
